Data published in patent US7589080B2, “β-cyclodextrin compositions, and use to prevent transmission of sexually transmitted diseases” (priority 2000, dated 2009).
Marks after values point to notes of the source that are not given here.

Assays:
HSV-2 strain G = test: HSV mouse vaginal challenge model; type: in vivo, CD-1 mice; settings: HSV-2 preincubated with 3%, intravaginal 1×10^4 TCID50; p=0.022
Protocol: The ability of 2-OH-βCD to reduce the infectiousness of HIV-1 (Examples 2 and 3) led to an investigation as to the general applicability of βCDs to prevent the transmission of other sexually transmitted enveloped viruses. A well characterized HSV mouse vaginal challenge model was used to examine the effect of 2-OH-βCD on HSV-2 infection (Sherwood et al., supra, 1996). Adult female CD-1 mice (Charles River Breeding Laboratories; Wilmington Mass.) were injected subcutaneously with Depo-Provera® progestin (2 mg) to increase their sensitivity, then one week later the mice were inoculated intravaginally with 1×10^4 TCID50 of cell-free HSV-2 strain G (10 ID50) using a WIRETROL capillary micropipette (Drummond Scientific; Broomall Pa.). Infection was confirmed by lavage culture on newborn foreskin fibroblast cells (Biowhitaker). Prior to inoculation, HSV-2 was preincubated either with 3% 2-OH-βCD or with buffer.

HIV = test: Luciferase-based single cycle infectivity assay in LuSIV cells; type: cell-based, HIV-1; settings: LuSIV cells treated with 20 mM; all viral input levels
Protocol: The effect of 2-OH-βCD on infectivity of HIV was measured in a Luciferase-based single cycle infection assay as previously described (Liao et al., supra, 2000). LuSIV cells were treated with 20 mM 2-OH-βCD in iRPMI or iRPMI alone for 1 hr at 37° C. Cells were then washed with iRPMI before being resuspended in cRPMI at a density of 2×10^6/ml. Cells in 100 Tl were mixed with cRPMI or with dilutions of virus supernatant (62 to 500 pg/ml of p24) from 2-OH-βCD-treated or untreated PM1 cells and allowed to incubate overnight (16 hr) at 37° C. The LuSIV cells were washed with PBS and lysed with 100 Tl of Reporter Lysis Buffer (Promega). After centrifugation at 13,000×g for 30 seconds, 10, μl of lysate were added to 100 μl Luciferase Reagent (Promega) in an opaque 96 well plate and luminescence was measured on a Packard Lumicount luminometer (Downers Grove, Ill.).
The effects of βCD treatment on HIV infectivity were measured in a sensitive single-cycle infection assay based on a cell line transfected with an LTR-luciferase cassette. […] Quantitative measurements of single round infection are obtained with this assay system (Roos et al., Virology 273:307-315, 2000, which is incorporated herein by reference). […]

[1] = test system: CD4+ HIV-susceptible target cells; test: Cell viability, growth and function after 2-OH-βCD treatment; type: cell-based
From the text: The role of lipid rafts in the HIV-1 fusion process was examined by treating CD4+HIV-susceptible target cells with 2-OH-βCD to deplete membrane cholesterol and disperse lipid rafts.
Loss of CXCR function in regulating LFA-1 could also explain the lower binding of HIV-1 to βCD-treated cells observed previously (Liao et al., supra, 2000; Orentas and Hildreth, supra, 1993). […] The ability of βCD treatment of cells to affect control of LFA-1 function by CXCR4 also was examined. Jurkat cells were treated with 2-OH-βCD or medium alone, then were added to the wells of culture plates coated with soluble recombinant ICAM-Ig. SDF-1, a CXCR4-specific chemokine that triggers LFA-1 function, was added to trigger binding of LFA-1 to ICAM-1. Control cells responded to SDF-1 and, as expected, bound very well to ICAM-Ig. […] CXCR4-specific gp120 triggers the same responses through CXCR4 as SDF-1 (Iyengar et al., J. Immunol. 162:6263-6267, 1999).
βCD treatment blocks HIV-1 virus infection. HIV-1 can spread in cell cultures without necessarily exerting cytopathic effects. […] To test the effects of cholesterol depletion on HIV-1 infection of primary T cells by free virus, PHA blasts were treated with 10 mM 2-OH-βCD or medium alone, then were exposed to HIV-1 for 2 hr before washing to remove input virus. Viability and growth of the PHA blasts was not affected by treatment with the βCD under the conditions used. P24 release was measured after an addition 6 days in culture. Two primary strains of HIV-1, 97.099 and 97.534, M-tropic (R5) and dual-tropic (X4R5), respectively, were tested.
The effects of βCD treatment on HIV infectivity were measured in a sensitive single-cycle infection assay based on a cell line transfected with an LTR-luciferase cassette. […] Quantitative measurements of single round infection are obtained with this assay system (Roos et al., Virology 273:307-315, 2000, which is incorporated herein by reference). Viability of LuSIV cells as determined by trypan blue exclusion and proliferation was not affected by 2-OH-βCD treatment. βCD treatment of LuSIV cells reduced HIV infection by almost 100%, and the effects were readily seen at all viral input levels.

HIV-1Ba-L-infected HuPBL = test: Vaginal transmission of cell-associated HIV-1 in HuPBL-SCID mice; type: in vivo; settings: for Number of mice from which HIV-1 was cultured/Number of mice exposed to HIV-1: P < 0.01
Protocol: The mice were treated subcutaneously with 2.5 mg progestin (Depo-Provera® progestin; Upjohn Pharmaceuticals; Kalamazoo Mich.), on the same day as administration of 5×10^7 unstimulated HuPBMC intraperitoneally in 1 ml PBS. Seven days following progestin treatment and reconstitution of the SCID mice with HuPBMC, the mice were anesthetized and administered pelleted, cell-free HIV-1Ba-L (up to […]), supernatant fluids from HIV-1Ba-L-infected HuPBL, HIV-1Ba-L-infected HuPBL, or HIV-1MN-infected HuPBL (1×10^6/mouse). In the βCD experiments, the mice received 2-OH-βCD (3% w/v in PBS) 5 min prior to receiving 1×10^6 HIV-1Ba-L-infected HuPBL, 1×10^6 HIV-1Ba-L-infected HuPBL pre-incubated with 3% 2-OH-βCD, or 1×10^6 HIV-1Ba-L-infected HuPBL suspended in PBS.
Mice remained anesthetized for 5 minutes following intravaginal inoculation by pipette. Extreme care was taken to avoid causing trauma to vaginal tissues. Two weeks later the mice were euthanized and peritoneal cells were recovered by lavage with cold PBS. The cells recovered by lavage (of both murine and human origin) were assayed by DNA-PCR for human β-globin to determine the presence of human cells from the peritoneum and for HIV-1 infection by co-culture with PHA-stimulated HuPBMC.
The ability of a βCD to inhibit vaginal transmission of cell-associated HIV-1 was examined. Reconstituted HuPBL-SCID mice were challenged intravaginally with 1×10^6 PBMC infected with HIVBa-L after receiving progesterone subcutaneously and HuPBMC intraperitoneally. For two of the experimental groups the HIV-1 infected PBMC were pre-incubated in either 20 Tl PBS or 2-OH-βCD (3% w/v) before the mixture was inoculated intravaginally.

## 2-hydroxypropyl-β-cyclodextrin [2-OH-βCD]
HSV-2 strain G
  Mice that became infected: 5 of 10
HIV
  Reduction of HIV infection of LuSIV cells: ~100%
[1]; 10 mM
  Viability and growth of the PHA blasts: not affected
[1]; 10 to 20 mM for 1 hr at 37° C
  Cell viability by Trypan Blue exclusion: without any loss in cell viability
[1]; Jurkat cells, adhesion assay
  Cell viability: no effect on cell viability
[1]; LuSIV cells
  Viability of LuSIV cells by trypan blue exclusion and proliferation: not affected
[1]; placed back into culture in cholesterol-containing medium
  Cell growth after treatment: continued to grow normally
[1]; treated Jurkat cells
  Ca2+ flux responses to anti-CD3 MAb: still showed Ca^2+ flux responses
HIV-1Ba-L-infected HuPBL; 3% w/v intravaginally 5 min prior to infected HuPBMC challenge
  Number of mice from which HIV-1 was cultured/Number of mice exposed to HIV-1: 1/11*
HIV-1Ba-L-infected HuPBL; 3% w/v premixed with HIV-infected HuPBMC, intravaginal
  Number of mice from which HIV-1 was cultured/Number of mice exposed to HIV-1: 2/16*
HIV-1Ba-L-infected HuPBL; 3% w/v, even when administered prior to infected PBMC
  Cell-associated HIV-1 transmission by the vaginal route: significantly inhibited
